Among the data in patent publication US12594276B2, “Inhibitors of human immunodeficiency virus replication” (ViiV Healthcare UK (No.5) Limited, priority 2024, dated 2026) are EC50 and CC50 values, retold here.

Each structure is given as a SMILES string. Read-outs that look alike come from different tables or passages of the source.

Data set [1] has as its system recombinant NL4-3 virus (nef section replaced with Renilla luciferase gene) in MT-2 cells. The data set is described as follows: HIV cell culture assay (antiviral activity, luciferase readout). The class given is cell-based. The note with it: Renilla, NL43, MT-2 cells infected for 4-5 days with recombinant NL4-3 Renilla luciferase virus. In short, it runs like this:
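The reporter virus was produced by transfecting 293T cells with the NL4-3 nef/Renilla luciferase proviral clone. MT-2 cells were infected for 4–5 days with serial compound dilutions present. Luciferase was read with a live-cell substrate, and EC50 came from the exponential median-effect equation.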

The nature of data set [2]: Compound cytotoxicity, XTT-based colorimetric assay. The conditions noted are these: human. Format: cell-based. Summed up: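 CC50 derived from XTT colorimetric signal measured on day 4 in MT2 cells that were not infected. All other steps followed the antiviral assay protocol.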
[3] abbreviates: uninfected MT2 cells, day 4, XTT, read-out: CC50.

With `COCCOCCn1nc(NS(C)(=O)=O)c2c(Cl)ccc(-n3c([C@H](Cc4cc(F)cc(F)c4)NC(=O)Cn4nc(C5CC5)c5c4C[C@@H]4C[C@H]54)nc4nc(C5CCC(F)(F)CC5)ccc4c3=O)c21` (atropisomer, axis not shown; (P)) [Example 237, N-[(1S)-1-[(3P)-3-{4-chloro-3-methanesulfonamido-1-[2-(2-methoxyethoxy)ethyl]-1H-indazol-7-yl}-7-(4,4-difluorocyclohexyl)-4-oxo-3H,4H-pyrido[2,3-d]pyrimidin-2-yl]-2-(3,5-difluorophenyl)ethyl]-2-[(2S,4S)-9-cyclopropyl-7,8-diazatricyclo[4.3.0.0^2,^4]nona-1(6),8-dien-7-yl]acetamide], the concentration for a half-maximal effect (EC50) in data set [1] came to 0.006 nM. In addition, the CC50 at 4 days in data set [2] (setting [3]) is over 50 nM.
Turning to `CS(=O)(=O)Nc1nn(CCN2CCC(F)(F)CC2)c2c(-n3c([C@H](Cc4cc(F)cc(F)c4)NC(=O)Cn4nc(C5CC5)c5c4C[C@@H]4C[C@H]54)nc4nc(C5CCC(F)(F)CC5)c(F)cc4c3=O)ccc(Cl)c12` (atropisomer, axis not shown; (P)) [Example 239, N-[(1S)-1-[(3P)-3-{4-chloro-1-[2-(4,4-difluoropiperidin-1-yl)ethyl]-3-methanesulfonamido-1H-indazol-7-yl}-7-(4,4-difluorocyclohexyl)-6-fluoro-4-oxo-3H,4H-pyrido[2,3-d]pyrimidin-2-yl]-2-(3,5-difluorophenyl)ethyl]-2-[(2S,4S)-9-cyclopropyl-7,8-diazatricyclo[4.3.0.0^2,^4]nona-1(6),8-dien-7-yl]acetamide], the EC50 in data set [1] is 0.021 nM. In addition, in data set [2] (setting [3]), the CC50 at 4 days is over 50 nM.
As to `C[C@@H]1CN(CCn2nc(NS(C)(=O)=O)c3c(Cl)ccc(-n4c([C@H](Cc5cc(F)cc(F)c5)NC(=O)Cn5nc(C6CC6)c6c5C[C@@H]5C[C@H]65)nc5nc(C6CCC(F)(F)CC6)cc(C(F)F)c5c4=O)c32)C[C@H](C)O1` (atropisomer, axis not shown; (P)) [Example 240, N-[(1S)-1-[(3P)-3-(4-chloro-1-{2-[(2R,6S)-2,6-dimethylmorpholin-4-yl]ethyl}-3-methanesulfonamido-1H-indazol-7-yl)-7-(4,4-difluorocyclohexyl)-5-(difluoromethyl)-4-oxo-3H,4H-pyrido[2,3-d]pyrimidin-2-yl]-2-(3,5-difluorophenyl)ethyl]-2-[(2S,4S)-9-cyclopropyl-7,8-diazatricyclo[4.3.0.0^2,^4]nona-1(6),8-dien-7-yl]acetamide], the EC50 in data set [1] was found to be 0.026 nM. For the same compound, the CC50 at 4 days in data set [2] (setting [3]) is over 50 nM.
Take `COCCOCCn1nc(NS(C)(=O)=O)c2c(Cl)ccc(-n3c([C@H](Cc4cc(F)cc(F)c4)NC(=O)Cn4nc(C(F)F)c5c4C(F)(F)[C@@H]4C[C@H]54)nc4nc(C5CCC(F)(F)CC5)ccc4c3=O)c21` (atropisomer, axis not shown; (P)) [Example 241, N-[(1S)-1-[(3P)-3-{4-chloro-3-methanesulfonamido-1-[2-(2-methoxyethoxy)ethyl]-1H-indazol-7-yl}-7-(4,4-difluorocyclohexyl)-4-oxo-3H,4H-pyrido[2,3-d]pyrimidin-2-yl]-2-(3,5-difluorophenyl)ethyl]-2-[(2S,4R)-9-(difluoromethyl)-5,5-difluoro-7,8-diazatricyclo[4.3.0.0^2,^4]nona-1(6),8-dien-7-yl]acetamide]: in data set [1], the EC50 amounted to 0.018 nM. Further, the CC50 at 4 days in data set [2] (setting [3]) is over 50 nM.
On to `Cc1cc(C2CCC(F)(F)CC2)nc2nc([C@H](Cc3cc(F)cc(F)c3)NC(=O)Cn3nc(C4CC4)c4c3C[C@@H]3C[C@H]43)n(-c3ccc(Cl)c4c(NS(C)(=O)=O)nn(CCN5[C@@H]6CC[C@H]5CC(F)(F)C6)c34)c(=O)c12` (atropisomer, axis not shown; (P)) [Example 245], for which the concentration for a half-maximal effect (EC50) in data set [1] was determined as 0.019 nM. For the same compound, the 50% cytotoxic concentration (CC50) at 4 days in data set [2] was over 50 nM.
With `Cc1cc(C2CCC(F)(F)CC2)nc2nc([C@H](Cc3cc(F)cc(F)c3)NC(=O)Cn3nc(C(F)F)c4c3C(F)(F)[C@@H]3C[C@H]43)n(-c3ccc(Cl)c4c(NS(C)(=O)=O)nn(CCN5[C@@H]6CC[C@H]5CC(F)(F)C6)c34)c(=O)c12` (atropisomer, axis not shown; (P)) [Example 246, N-[(1S)-1-[(3P)-3-(4-chloro-1-{2-[(1R,5S)-3,3-difluoro-8-azabicyclo[3.2.1]octan-8-yl]ethyl}-3-methanesulfonamido-1H-indazol-7-yl)-7-(4,4-difluorocyclohexyl)-5-methyl-4-oxo-3H,4H-pyrido[2,3-d]pyrimidin-2-yl]-2-(3,5-difluorophenyl)ethyl]-2-[(2S,4R)-9-(difluoromethyl)-5,5-difluoro-7,8-diazatricyclo[4.3.0.0^2,^4]nona-1(6),8-dien-7-yl]acetamide], the EC50 in data set [1] turned out to be 0.028 nM. In data set [2], this compound came in with a CC50 at 4 days of over 50 nM.
In the case of `Cc1cc(C2CCC(F)(F)CC2)nc2nc([C@H](Cc3cc(F)cc(F)c3)NC(=O)Cn3nc(C(F)F)c4c3C(F)(F)[C@@H]3C[C@H]43)n(-c3ccc(Cl)c4c(NS(C)(=O)=O)nn(CCN5CC(F)(F)C(F)(F)C5)c34)c(=O)c12` (atropisomer, axis not shown; (P)) [Example 247, N-[(1S)-1-[(3P)-3-{4-chloro-3-methanesulfonamido-1-[2-(3,3,4,4-tetrafluoropyrrolidin-1-yl)ethyl]-1H-indazol-7-yl}-7-(4,4-difluorocyclohexyl)-5-methyl-4-oxo-3H,4H-pyrido[2,3-d]pyrimidin-2-yl]-2-(3,5-difluorophenyl)ethyl]-2-[(2S,4R)-9-(difluoromethyl)-5,5-difluoro-7,8-diazatricyclo[4.3.0.0^2,^4]nona-1(6),8-dien-7-yl]acetamide], the EC50 in data set [1] was 0.047 nM. Further, the CC50 at 4 days in data set [2] (setting [3]) is over 50 nM.
Consider `Cc1cc(C2CCC(F)(F)CC2)nc2nc([C@H](Cc3cc(F)cc(F)c3)NC(=O)Cn3nc(C4CC4)c4c3C[C@@H]3C[C@H]43)n(-c3ccc(Cl)c4c(NS(C)(=O)=O)nn(CCN5CC(F)(F)C(F)(F)C5)c34)c(=O)c12` (atropisomer, axis not shown; (P)) [Example 248, N-[(1S)-1-[(3P)-3-{4-chloro-3-methanesulfonamido-1-[2-(3,3,4,4-tetrafluoropyrrolidin-1-yl)ethyl]-1H-indazol-7-yl}-7-(4,4-difluorocyclohexyl)-5-methyl-4-oxo-3H,4H-pyrido[2,3-d]pyrimidin-2-yl]-2-(3,5-difluorophenyl)ethyl]-2-[(2S,4S)-9-cyclopropyl-7,8-diazatricyclo[4.3.0.0^2,^4]nona-1(6),8-dien-7-yl]acetamide], for which the EC50 in data set [1] came to 0.018 nM. Also, the CC50 at 4 days in data set [2] (setting [3]) was over 50 nM.
On to `CO[C@H]1CCN(CCn2nc(NS(C)(=O)=O)c3c(Cl)ccc(-n4c([C@H](Cc5cc(F)cc(F)c5)NC(=O)Cn5nc(C(F)F)c6c5C(F)(F)[C@@H]5C[C@H]65)nc5nc(C6CCC(F)(F)CC6)cc(C(F)F)c5c4=O)c32)C1` (atropisomer, axis not shown; (P)) [Example 257, N-[(1S)-1-[(3P)-3-(4-chloro-3-methanesulfonamido-1-{2-[(3S)-3-methoxypyrrolidin-1-yl]ethyl}-1H-indazol-7-yl)-7-(4,4-difluorocyclohexyl)-5-(difluoromethyl)-4-oxo-3H,4H-pyrido[2,3-d]pyrimidin-2-yl]-2-(3,5-difluorophenyl)ethyl]-2-[(2S,4R)-9-(difluoromethyl)-5,5-difluoro-7,8-diazatricyclo[4.3.0.0^2,^4]nona-1(6),8-dien-7-yl]acetamide], for which the concentration giving a half-maximal response (EC50) in data set [1] turned out to be 0.027 nM. Further, in data set [2] (setting [3]), the CC50 at 4 days is over 50 nM.
Take `CS(=O)(=O)Nc1nn(CCN2C[C@@H](F)[C@@H](F)C2)c2c(-n3c([C@H](Cc4cc(F)cc(F)c4)NC(=O)Cn4nc(C(F)F)c5c4C(F)(F)[C@@H]4C[C@H]54)nc4nc(C5CCC(F)(F)CC5)cc(C(F)F)c4c3=O)ccc(Cl)c12` (atropisomer, axis not shown; (P)) [Example 259, N-[(1S)-1-[(3P)-3-(4-chloro-1-{2-[(3R,4S)-3,4-difluoropyrrolidin-1-yl]ethyl}-3-methanesulfonamido-1H-indazol-7-yl)-7-(4,4-difluorocyclohexyl)-5-(difluoromethyl)-4-oxo-3H,4H-pyrido[2,3-d]pyrimidin-2-yl]-2-(3,5-difluorophenyl)ethyl]-2-[(2S,4R)-9-(difluoromethyl)-5,5-difluoro-7,8-diazatricyclo[4.3.0.0^2,^4]nona-1(6),8-dien-7-yl]acetamide]: the concentration for a half-maximal effect (EC50) in data set [1] was determined as 0.025 nM. For the same compound, the cytotoxic concentration (CC50) at 4 days in data set [2] (setting [3]) was over 50 nM.
As for `Cc1cc(C2CCC(F)(F)CC2)nc2nc([C@H](Cc3cc(F)cc(F)c3)NC(=O)Cn3nc(C(F)F)c4c3C(F)(F)[C@@H]3C[C@H]43)n(-c3ccc(Cl)c4c(NS(C)(=O)=O)nn(CCN5CCCC5)c34)c(=O)c12` (atropisomer, axis not shown; (P)) [Example 266, N-[(1S)-1-[(3P)-3-{4-chloro-3-methanesulfonamido-1-[2-(pyrrolidin-1-yl)ethyl]-1H-indazol-7-yl}-7-(4,4-difluorocyclohexyl)-5-methyl-4-oxo-3H,4H-pyrido[2,3-d]pyrimidin-2-yl]-2-(3,5-difluorophenyl)ethyl]-2-[(2S,4R)-9-(difluoromethyl)-5,5-difluoro-7,8-diazatricyclo[4.3.0.0^2,^4]nona-1(6),8-dien-7-yl]acetamide], the half-maximal effective concentration (EC50) in data set [1] was 0.034 nM. For the same compound, in data set [2] (setting [3]), the cytotoxic concentration (CC50) at 4 days is over 50 nM.
